Entries after “also recorded” stand apart in the source; their conditions may differ.
Assays:
[1] = system: GPR45; assay: RNA interference of GPR45 in primary culture cells of hypothalamuses of wild type fetal mice, RT-PCR; type: cell-based; settings: 10 pmol siRNA per well, transfection 72 h
Procedure: […]
For detection of POMC expression, primary cell RNA was extracted to perform reverse transcription to obtain cDNA, then real-time quantitative PCR detection was performed, and experiment steps were the same as embodiment 11. […]

[2] = system: GPR45^PB1/PB1 mice; assay: MTII injected daily into third intraventricular of adult GPR45 homozygote obese mice; body weight and fat; type: in vivo
Procedure: (§1) MTII is an agonist of MC3R/MC4R, can simulate a function of a POMC shorn product α-MSH and plays a role of suppressing appetite and promoting energy metabolism. […] When the mutant mice and wild type mice of control groups were injected with equal amounts of normal saline, the body weight was not influenced.

[3] = system: wild type mice; assay: MTII injected into third intraventricular of wild type mice; body weight and fat; type: in vivo
Procedure: as §1

[4] = mutant mice, six days after administration, compared with normal saline control
[5] = wild type mice injected with MTII, six days

Row | Substance | expression amount of GPR45 decreased [1] | expression amount of POMC decreased [1] | body weight after three days after MTII was injected ([2]; GPR45^PB1/PB1 mice, three days) | fat content (FIG. 24B) ([2]; adult male GPR45 homozygote mice) | body weight (FIG. 24A) ([2]; adult male GPR45 homozygote mice, after six days) | increase of the body weight ([2]; daily injection, adult obese mice) | obesity caused by GPR45 mutations ([2]; intraventricular injection) | body weight decreased relative to the body weight before injection ([2]; mutant mice, six days after MTII was injected) | weight of gonadal white adipose tissues decreased [2, 4] | weight of interscapular brown adipose tissues decreased [2, 4] | weight of retroperitoneal white adipose tissues decreased [2, 4] | weight of gonadal white adipose tissues decreased [3, 5] | weight of interscapular brown adipose tissues increased [3, 5] | weight of retroperitoneal white adipose tissues decreased [3, 5] | body weight decreased relative to the body weight before injection ([3]; wild type mice, six days after MTII was injected)
1 | GPR45-siRNA: siRNA, sense 5′-CCGACAUCAUGCUGUCUUUAUTT-3′ (SEQ ID NO. 29), antisense 5′-AUAAAGACAGCAUGAUGUCGGTT-3′ (SEQ ID NO. 30) (chemistry not given here) | 53.4% | 30.7% |  |  |  |  |  |  |  |  |  |  |  |  | 
2 | melanotan-2 [MTII] |  |  | reduced to the level of the body weight of the wild type mice | fat content decreases | body weight decreases | could be suppressed | obesity is suppressed; also recorded: effectively reverses the obesity | 13.6% | 48.5% | 50.4% | 66.7% | 44.1% | 0.4% | 50.9% | 1.8%

Source: US10953109B2, “Application of GPR45 gene” (FUDAN UNIVERSITY, priority 2015, dated 2021)
